Experimental data taken from patent publication US10590116B2, “3-indolyl furanoids as inhibitors of matrix metalloproteinase-9 for prevention of gastric ulcer and other inflammatory diseases” (Council of Scientific & Industrial Research, priority 2017, dated 2020).

The compounds below were run on indomethacin-induced acute gastric ulcers (assay: Protection studies of gastric ulceration in vivo (indomethacin-induced acute gastric ulcer, ulcer index)). Conditions: Mus musculus, po, 4 h; 12 mg/kg body weight, indomethacin 80 mg/kg, Balb/c mice.
Design: species or system Balb/c mice
Procedure: Animal experiments were carried out using Balb/c mice (20-25 g). Animals were anesthetized with ketamine (12 mg/kg b.w.) prior to cervical dislocation. Control and experimental animals were fasted for 6 hr with free access to water.
Balb/c mice (20-25 g) bred in-house with free access to food and water was used for all experiments. Experiments were designed to minimize animal suffering and to use the minimum number associated with valid statistical evaluation. Animals were anesthetized with ketamine (12 mg/kg b.w.) followed by cervical dislocation. Animal experiments were carried out following the guidelines of animal ethics committee of the institute. Control and experimental animals were fasted for 6 h with free access to water.
Before ulcer induction, animals of both control and experimental groups were kept separately in standard controlled conditions. Acute gastric ulcers were induced by oral administration of indomethacin at a dose of 80 mg/kg b.w. The control group received the vehicle only (olive oil), whereas the experimental group received indomethacin for gastric ulceration. After 4 h, the animals were sacrificed and gastric lesions in the fundic stomach were scored and expressed as obtained by counting the number of red bands/dots as follows: 0=no pathology; 1=a small pinhead ulcer spot; and 2-5=a band like lesion of 2-5 mm length. Total score become ˜50 when ulcer is severe. The sum of the total scores as divided by the number of animals was expressed as the mean ulcer index. Formulations were administered orally 30 min prior to indomethacin treatment to check the gastroprotective effect. Among all the chemical compositions of 3-indolyl furanoids synthesized (table 1), compounds 1, 2, 5, 8, 9 and 12 were tested for prevention studies against gastric inflammation in vivo.

Structure (SMILES)	inhibition in vivo at 12 mg/kg [%]
COc1ccc2[nH]c([S+]([O-])Cc3ncc(C)c(OC)c3C)nc2c1 (centres unmarked) [Omeprazole, reference compound]	100

Same assay, conditions: Mus musculus; 50 mg/kg body weight oral in olive oil, indomethacin 80 mg/kg, scored after 4 h, Balb/c mice

Structure (SMILES)	inhibition in vivo at 50 mg/kg [%]
Oc1ccc2[nH]cc(-c3cc(-c4ccccc4)oc3-c3ccccc3)c2c1 [compound 1, 3-(2,5-diphenylfuran-3-yl)-1H-indol-5-ol]	78
COc1ccc2[nH]cc(-c3cc(-c4ccccc4)oc3-c3ccccc3)c2c1 [compound 2, 3-(2,5-diphenylfuran-3-yl)-5-methoxy-1H-indole]	83
COc1ccc2[nH]cc(-c3cc(-c4ccccc4)oc3-c3ccccc3)c2c1OC [compound 6, 4,5-dimethoxy-3-(2,5-diphenylfuran-3-yl)-1H-indole]	74
c1ccc(-c2cc(-c3c(-c4ccccc4)[nH]c4ccccc34)c(-c3ccccc3)o2)cc1 [compound 8, 2-phenyl-3-(2,5-diphenylfuran-3-yl)-1H-indole]	65
Oc1ccccc1-c1[nH]c2ccccc2c1-c1cc(-c2ccccc2)oc1-c1ccccc1 [compound 9, 3-(2,5-diphenylfuran-3-yl)-2-(2-hydroxyphenyl)-1H-indole]	72
COc1cccc2c1c(-c1cc(-c3ccccc3)oc1-c1ccccc1)cn2C [compound 12, 4-methoxy-1-methyl-3-(2,5-diphenylfuran-3-yl)-1H-indole]	56

The compounds below were run against MMP-9 (Homo sapiens, UniProt P14780) (assay: In vitro analysis of anti-ulcer efficacy (structure-activity discussion)). Conditions: method not described.
Chain of MMP-9 (P14780 94-707, species assumed): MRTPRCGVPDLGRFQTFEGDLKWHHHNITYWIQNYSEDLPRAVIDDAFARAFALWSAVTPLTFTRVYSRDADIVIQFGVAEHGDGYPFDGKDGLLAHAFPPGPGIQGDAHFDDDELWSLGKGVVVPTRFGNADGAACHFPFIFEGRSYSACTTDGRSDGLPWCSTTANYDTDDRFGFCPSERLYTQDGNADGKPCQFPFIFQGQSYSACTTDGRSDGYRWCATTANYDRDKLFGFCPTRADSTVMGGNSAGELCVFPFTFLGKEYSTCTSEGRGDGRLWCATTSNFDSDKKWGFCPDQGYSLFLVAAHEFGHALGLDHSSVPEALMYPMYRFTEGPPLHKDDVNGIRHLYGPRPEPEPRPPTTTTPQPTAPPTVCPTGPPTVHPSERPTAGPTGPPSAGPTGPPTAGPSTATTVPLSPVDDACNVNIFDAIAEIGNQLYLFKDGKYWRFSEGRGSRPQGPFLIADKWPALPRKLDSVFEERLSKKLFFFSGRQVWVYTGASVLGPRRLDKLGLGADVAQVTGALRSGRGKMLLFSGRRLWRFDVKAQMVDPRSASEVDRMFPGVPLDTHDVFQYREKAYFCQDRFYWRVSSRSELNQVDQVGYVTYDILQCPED

Structure (SMILES)	anti-ulcer efficacy in vitro
C=CCOc1ccc2[nH]cc(-c3cc(-c4ccccc4)oc3-c3ccccc3)c2c1 [compound 3, 5-(allyloxy)-3-(2,5-diphenylfuran-3-yl)-1H-indole]	moderate anti-ulcer efficacy
CCCOc1ccc2[nH]cc(-c3cc(-c4ccccc4)oc3-c3ccccc3)c2c1 [compound 4, 3-(2,5-diphenylfuran-3-yl)-5-propoxy-1H-indole]	moderate anti-ulcer efficacy
Cc1c(-c2cc(-c3ccccc3)oc2-c2ccccc2)c2ccccc2n1C [compound 11, 1,2-dimethyl-3-(2,5-diphenylfuran-3-yl)-1H-indole]	not acceptable to have good anti-ulcer activity
COc1cccc2c1c(-c1cc(-c3ccccc3)oc1-c1ccccc1)cn2C [compound 12, 4-methoxy-1-methyl-3-(2,5-diphenylfuran-3-yl)-1H-indole]	not acceptable to have good anti-ulcer activity
